Values joined by “and” are separate entries in the source; they are usually repeats but may differ in a detail not shown here. Equal entries are not always repeated.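 These data come from cells grown in 96-well plates and exposed to compound for 48 hours at five concentrations. GI50: concentration for 50% inhibition of growth. TGI is the concentration that stops growth completely.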 Bounds are passed on as bounds.

Some test systems named below: COLO 205 colon; IGROV1 ovarian; K-562 leukemia; M14 melanoma; OVCAR-4 ovarian; SNB-75 CNS; SW-620 colon; UACC-62 melanoma; EKVX NSCLC; SNB-19 CNS.
Holding throughout (assay): inhibition of tumour cell growth, NCI panel, 48 h

For the compound `COc1cc(C(C#N)NNC(=O)c2ccccc2O)ccc1O` (stereo unspecified), the TGI in the assay with COLO 205 colon was above 100 µM; in the assay on IGROV1 ovarian, above 100 µM; in the assay with K-562 leukemia, above 100 µM; in the assay on M14 melanoma, above 100 µM; in the assay on OVCAR-4 ovarian, above 100 µM; with SNB-75 CNS it was 8.46 µM. In addition, the TGI was above 100 µM in the assay with SW-620 colon and 5.22 µM in the assay with UACC-62 melanoma.
Take `O=c1c(OC/C(=N/O)c2ccccc2)c(-c2ccccc2)oc2ccccc12`: the GI50 in the assay on COLO 205 colon was 14.8 µM; in the assay on EKVX NSCLC it was 12.3 µM; in the assay with K-562 leukemia, 13.7 µM; in the assay on M14 melanoma, 19.4 µM; in the assay on OVCAR-4 ovarian it was 38.6 µM; with SNB-19 CNS, 15.9 µM. For the same compound, the GI50 in the assay on SNB-75 CNS was 16.8 µM; with SW-620 colon it was 11.4 µM; in the assay on UACC-62 melanoma, 9.2 µM. The TGI is 42.9 µM in the assay on COLO 205 colon; 30.1 µM in the assay on EKVX NSCLC; above 50 µM in the assay with K-562 leukemia; above 50 µM with M14 melanoma; above 50 µM with OVCAR-4 ovarian; above 50 µM in the assay on SNB-19 CNS. Moreover, the TGI with SNB-75 CNS was above 50 µM; in the assay on SW-620 colon it was 25.4 µM; in the assay with UACC-62 melanoma it was 25.2 µM.
For the compound `Cn1cnc([N+](=O)[O-])c1Sc1ncnc2nc[nH]c12`, the GI50 with COLO 205 colon is 11.6 µM and 19.9 µM; in the assay on EKVX NSCLC, 28.3 µM and > 100 µM; in the assay on IGROV1 ovarian, 9.13 µM and 12.1 µM; with K-562 leukemia, 2.49 µM and 1.3 µM; with M14 melanoma, 0.755 µM and 2.77 µM; in the assay with OVCAR-4 ovarian, 3.38 µM and 10.2 µM. The GI50 in the assay with SNB-19 CNS was 61.4 µM and 84.4 µM; in the assay with SNB-75 CNS, 0.461 µM and 3.03 µM; in the assay with SW-620 colon, 18.8 µM and 32.1 µM; in the assay with UACC-62 melanoma, 2.54 µM and 3.4 µM. Moreover, the TGI in the assay with COLO 205 colon is 65.1 µM and > 100 µM; in the assay on EKVX NSCLC, above 100 µM; with IGROV1 ovarian, above 100 µM; with K-562 leukemia it was above 100 µM; in the assay with M14 melanoma, 60.5 µM and > 100 µM; in the assay on OVCAR-4 ovarian, above 100 µM. For the same compound, the TGI is above 100 µM in the assay on SNB-19 CNS; 17.1 µM and > 100 µM in the assay with SNB-75 CNS; above 100 µM in the assay with SW-620 colon; above 100 µM in the assay on UACC-62 melanoma.
Take `OC1CCC(Oc2cccc3cnc(Nc4ccc5nc[nH]c5c4)nc23)CC1` (stereo unspecified): the GI50 in the assay on COLO 205 colon was 0.21 µM; in the assay on EKVX NSCLC it was 0.487 µM; in the assay on IGROV1 ovarian it was 0.287 µM; in the assay with K-562 leukemia, 0.536 µM; with M14 melanoma it was 0.333 µM; in the assay with OVCAR-4 ovarian, 1.06 µM. Moreover, the GI50 was 0.407 µM in the assay with SNB-19 CNS, 0.12 µM in the assay on SNB-75 CNS, 0.407 µM with SW-620 colon and 0.573 µM with UACC-62 melanoma. Moreover, the TGI was found to be 0.886 µM in the assay on COLO 205 colon; 10.8 µM with EKVX NSCLC; 16.6 µM in the assay with IGROV1 ovarian; 19.3 µM in the assay on K-562 leukemia; 3.11 µM in the assay with M14 melanoma; 16 µM with OVCAR-4 ovarian. In addition, the TGI in the assay on SNB-19 CNS is 49.6 µM; in the assay with SNB-75 CNS, 2.21 µM; with SW-620 colon it was 16.5 µM; in the assay on UACC-62 melanoma, 7.26 µM.
For `CCCN(CCCCC(NC(C)=O)C(=O)NCc1ccccc1)C(=O)NC` (stereo unspecified), the TGI in the assay with COLO 205 colon, in the assay with EKVX NSCLC, in the assay with IGROV1 ovarian, with K-562 leukemia, with M14 melanoma and in the assay on OVCAR-4 ovarian was above 100 µM throughout. The TGI in the assay on SNB-19 CNS, with SNB-75 CNS, with SW-620 colon and in the assay with UACC-62 melanoma was above 100 µM throughout.
As for `O=C(Nc1ccc(Br)cc1)c1cc(Br)cc(Br)c1O`, the GI50 in the assay with COLO 205 colon was 2.33 µM; in the assay with EKVX NSCLC, 1.76 µM; in the assay on IGROV1 ovarian, 3.02 µM; in the assay with K-562 leukemia, 3.1 µM; in the assay with M14 melanoma it was 2.99 µM; in the assay on OVCAR-4 ovarian, 3.33 µM. Besides, the GI50 with SNB-19 CNS was 3.55 µM; in the assay with SNB-75 CNS it was 2.16 µM; with SW-620 colon, 3.39 µM; in the assay on UACC-62 melanoma, 2.56 µM. For the same compound, the TGI was 4.59 µM in the assay with COLO 205 colon; 7.38 µM in the assay on EKVX NSCLC; 15.6 µM in the assay on IGROV1 ovarian; above 100 µM with K-562 leukemia; 11.3 µM with M14 melanoma; above 100 µM with OVCAR-4 ovarian. Moreover, the TGI in the assay on SNB-19 CNS is above 100 µM; with SNB-75 CNS, 7.11 µM; with SW-620 colon, 12.6 µM; in the assay with UACC-62 melanoma, 15 µM.
In the case of `O=C1c2cccc3cc([N+](=O)[O-])cc(c23)C(=O)N1CCCN1CCN(CCCN2C(=O)c3cccc4cc([N+](=O)[O-])cc(c34)C2=O)CC1`, the TGI in the assay on COLO 205 colon was 2.67 µM; in the assay on EKVX NSCLC, above 100 µM; with IGROV1 ovarian it was 15.4 µM; in the assay on K-562 leukemia, above 100 µM; in the assay on M14 melanoma it was 4.87 µM; in the assay on OVCAR-4 ovarian it was 5.96 µM. The TGI is above 100 µM in the assay on SNB-19 CNS, 9.54 µM in the assay with SNB-75 CNS, above 100 µM in the assay with SW-620 colon and 1.65 µM in the assay on UACC-62 melanoma.
As to `CC(O)C(NC(=O)C(CS)NC(=O)C(CO)NC(=O)C(CCCCN)NC(=O)C(Cc1c[nH]c2ccccc12)NC(=O)C(Cc1ccc(O)cc1)NC(=O)C(CS)NC(=O)C(N)Cc1ccccc1)C(N)=O` (stereo unspecified), the GI50 with COLO 205 colon was 20.7 µM; with EKVX NSCLC, 36.1 µM; in the assay with IGROV1 ovarian, 20.2 µM; in the assay with K-562 leukemia it was 17.8 µM; in the assay on OVCAR-4 ovarian, 26.6 µM. The TGI with COLO 205 colon is > 25 µM and 66.2 µM; in the assay with EKVX NSCLC, > 25 µM and 83.9 µM; with IGROV1 ovarian, > 25 µM and 44 µM; in the assay with K-562 leukemia it was > 25 µM and 32.1 µM; in the assay with M14 melanoma it was above 25 µM; in the assay with OVCAR-4 ovarian, > 25 µM and 94.8 µM. The TGI in the assay with SNB-19 CNS is 63.4 µM; in the assay with SNB-75 CNS it was 62.5 µM; with SW-620 colon, above 25 µM; with UACC-62 melanoma it was > 25 µM and 57.8 µM.
Take `O=C(/C=C/c1ccc([N+](=O)[O-])o1)NNC(=O)c1cc2ccccc2cc1O`: the GI50 was 1.92 µM in the assay on COLO 205 colon; 7.2 µM in the assay with EKVX NSCLC; 3.07 µM with IGROV1 ovarian; 1.41 µM in the assay with K-562 leukemia; 0.738 µM in the assay with M14 melanoma; 1.26 µM in the assay on OVCAR-4 ovarian. For the same compound, the GI50 was 4.6 µM in the assay with SNB-19 CNS, 1.72 µM in the assay with SNB-75 CNS, 2.03 µM in the assay on SW-620 colon and 0.694 µM in the assay with UACC-62 melanoma. Also, the TGI in the assay on COLO 205 colon was 6.54 µM; in the assay on EKVX NSCLC, above 100 µM; in the assay with IGROV1 ovarian, above 100 µM; in the assay with K-562 leukemia it was above 100 µM; with M14 melanoma, 2.29 µM; in the assay with OVCAR-4 ovarian it was above 100 µM. Moreover, the TGI is above 100 µM with SNB-19 CNS, above 100 µM in the assay on SNB-75 CNS, above 89 µM in the assay on SW-620 colon and 2.26 µM with UACC-62 melanoma.

These data come from PubChem BioAssay (NCI).
